IC50, interaction mode and Tm data for 2 compounds are collected here from publication PMC6269967, “Evaluation of the Interaction between Long Telomeric DNA and Macrocyclic Hexaoxazole (6OTD) Dimer of a G-quadruplex Ligand” (Molecules, 2013).

Test [1] has as its system telomerase. Nature of the test: Telomerase repeat amplification protocol (TRAP) assay, cell-free, PC3 cell lysate. As to conditions: telomerase reaction 30 min, 20 °C, average of two independent experiments, read-out: telomerase inhibitory activity, IC50. The class given is biochemical. As to the method:
Finally, we examined the telomerase inhibitory activities of the L2H2-6OTD monomer (2) and its dimer 3 in a cell-free system by telomerase repeat amplification protocol (TRAP) assay using PC3 cell lysate. Telomerase is known to elongate various lengths of telomere sequences, and the stabilization ability of each ligand can be evaluated with TRAP assay.
Telomerase repeat amplification protocol (TRAP) assays were conducted as follows; 1 × 10^5 of PC3 cells were lysed with 200 μL of TRAP lysis buffer, placed on ice for 30 min, and centrifuged for 20 min (15,000 rpm, 4 °C). This TRAP lysate (2.0 μL) was mixed with 10×T-PCR buffer (5.0 μL), 2.5 mM dNTPs (1.0 μL), 50 ng/μL TS primer (5'-d[AATCCGTCGAGCAGAGTT]-3', 2.0 μL), 0.2 pM TSNT (5'-d[[…]]-3', 0.5 μL), DEPC (Diethylpyro carbonate) solution in MilliQ water (30 μL), compounds (DMSO solution, 5.0 μL), and placed on ice for 30 min. After the telomerase reactions (30 min, 20 °C), the reacting solution was placed on ice, 2.0 μL of 10 μM NT primer (5'-d[ATCGCTTCTCGGCCTTTT]-3’), 2.0 μL of […] (5'-d[GCGCGG (CTTACC)3CTAACC]-3') and 0.5 μL of Gene Taq (Nippon Gene, Tokyo, Japan) were added. The three-step PCR was performed: 27 cycles of 94 °C for 25 s, 50 °C for 25 s, and 72 °C for 45 s. […] IC50 value was calculated from average of two independent experiments.

Test [2] relates to long telomeric DNAs telo48, 72, and 96. The settings on record: ref [53]; cited from earlier work. The text has this: (§1) For evaluations of interaction and stabilization of telomeric DNA with G4 ligands, telo24 DNA, i.e., four sets of (TTAGGG) repeats consisting of 24 bases in total, has been usually used as a telomeric DNA model, because it is a minimum length able to form one unit of G4 structure.

The test system of test [3] is telo24. As to conditions: earlier work of the authors, reference not given; cited from earlier work.
Source text: as §1

The test system of another test is telo48. The settings on record: CD at 295 nm, 50 mM Tris–HCl pH 7.5, 100 mM KCl, ref [53], cited from earlier work. The text has this:
(§2) Table 1 Tm values (°C) of telomeric DNAs in the absence or presence of G4 ligands 2 and 3 ^a,b,c. | column: Tm

The test system of test [4] is telo24. As to conditions: telo24 (10 μM), ligand 4 eq.; CD at 295 nm, 50 mM Tris–HCl pH 7.5, 100 mM KCl; 1.0 °C/min; ligand-free Tm 59; ref [53]; cited from earlier work.
Source text: as §2

The target of test [5] is telomerase. As to conditions: TRAP assay; ref [17],[18],[19],[20],[21],[22]; read-out: telomerase inhibitory activity, IC50; cited from earlier work. The text has this:
At the end of chromosomes, there exists a characteristic region called the telomere. The telomere is composed of double-stranded tandem repeats of (TTAGGG/AATCCC)n sequence amounting to 2–30 kb, to which telomere binding proteins are bound. These sequences are shortened at each cell division, ultimately inducing cell senescence. At the extreme end of these duplex repeats there is a single-stranded 3' overhang, termed the 3' G-tail, consisting of ca. 50−250 nucleotides in total. The G-tail sequence is considered to form G-quadruplexes (G4s), one of the higher-order structures ...

Read-outs that look alike come from different tables or passages of the source.

With `NCCCC[C@@H]1NC(=O)c2coc(n2)-c2coc(n2)-c2coc(n2)[C@H](CCCCN)NC(=O)c2coc(n2)-c2coc(n2)-c2coc1n2` [compound 2], the IC50 with telomerase [1] turned out to be 15 nM. The interaction mode result was “each telo24 unit in the long telomeric DNAs interacted with two molecules of L2H2-6OTD (2) in an end-stacking mode, and were induced to take anti-parallel-type topology” in test [2]; “strongly interacts with telo24 to form anti-parallel-type G4 structure in an end-stacking mode with two molecules of 2” in the test with telo24 [3]. Moreover, the Tm in the test with telo48 (DNA printed telo48 (fourth group), ligand 16 eq., ligand-free Tm 55) is 70 °C; in the test with telo48 (DNA printed telo48 (third group), ligand 12 eq., ligand-free Tm 55) it was 73 °C; in the test with telo48 (telo48, ligand 8 eq., 1.0 °C/min, ligand-free Tm 57) it was 76 °C; in the test on telo24 [4] it was 75 °C.
In the case of `Cc1oc2nc1-c1nc(co1)-c1nc(co1)-c1nc(co1)-c1nc(co1)-c1nc(co1)C1=NC(CS1)c1nc-2c(C)o1` (centres unmarked) [telomestatin], on telomerase [5], the IC50 is 5 nM.

As usually defined, the IC50 is the point on the concentration scale where inhibition reaches its midpoint.
